“Also recorded” adds a separate entry of the source. Blank lines part the entries; values can stand above or below the molecule they belong to.
Assays:
[1] = In vivo biodistribution of 18F-SFB-ICG in wild type mice by whole body PET/CT; set-up: species or system female C57BL/6 mice
Description: (§1) The study was comprised of female C57BL/6 mice (n=4, 20.4+0.8 g, age 12.9 weeks). The modalities were whole body PET/CT and whole blood gamma counting which were performed on the mice using the imaging agent ^18F-SFB-ICG as outlined in Table 1. Briefly, the mice were imaged in a 2-bed imaging hotel with imaging agent administered intravenously while animals were on camera (volume dosed was maintained constant to keep mass dose constant). 1 hour dynamic PET data was acquired, followed by CT. A static 30 minute PET dataset was acquired at 4 hours, also followed by CT. A blood sample was taken immediately following each imaging time point for gamma counting.
PET/CT: PET images were co-registered to CT images and resampled to uniform voxel size (0.2 mm^3). The injected activity doses were normalized to the averaged activity in the field of view (FOV) in the final 6 frames of the dynamic scan (FOV-based normalization). The Regions of Interest (ROIs) were defined using various methods in VivoQuant software: A fixed volume ellipsoidal ROI was placed in the center of the heart, to encompass a volume of representative concentration for that region. The fixed volume sphere ROIs were placed in the center of the lobes of the lungs (2), and throughout the spleen (3) to encompass a volume of representative concentration for those regions. Based on the CT and PET, the following organs were segmented as completely as possible: liver, gallbladder, small intestines, cecum, and large intestines. The activity concentration was reported as Standardized Uptake Value (SUV), equating to the […]. For fully segmented organs, uptake was also reported in percentage injected dose (% ID). FIGS. 17A-17D show resulting PET/CT images of a representative wild type mouse.

[2] = Whole blood gamma counting after 18F-SFB-ICG injection; assay type: in vivo, female C57BL/6 mice; conditions: FIG. 24B
Description: as §1
Gamma Counting: Whole blood samples were collected after each imaging session for ex vivo radioactivity analysis by gamma counting. Triplicates of ^18F-SFB-ICG were also counted to calculate an efficiency factor from which counts could be converted to units of activity (μCi). The sample activities were corrected for background radiation and decay-corrected to the injection time. The tissue volumes were estimated through measurement of sample weights, and blood activity was reported as % ID/g and SUV.

[3] = [18F]SFB-ICG stability by HPLC (RCP); assay type: physicochemical
Description: FIGS. 11A-11B show HPLC traces of [^18F]SFB-ICG stability at 1 hour, and 2 hours.

Huh7 tumor cells = experiment: In vivo fluorescence imaging following ICG administration in Huh7 xenograft mice; set-up: species or system immunodeficient mice; conditions: 0.5 mg/kg ICG dose, FIG. 32
Description: Other areas of high signal represents concentration within the intestinal lumen. Control mouse without tumor is shown on the left side.
Xenotransplantation of the following cell lines is performed: FLX1 (FLC), Huh-7 (HCC) and HepG2 (well-differentiated HCC) in immunodeficient mice. […] Therefore, the dose is escalated to an appropriate level. Even though the majority of the models use HCC cells, the findings are applicable to FLC since FLC also has the ability to retain ICG (FIGS. 31A-31D). Currently, there is only one readily available FLC cell line, which also has the property to be engrafted in an immunodeficient mouse model.

FLC tumor tissue = experiment: Gross and microscopic ICG localization in FLC patients (near-infrared fluorescence at surgery); assay type: in vivo, patient; conditions: intravenous ICG 48 hours prior to surgery, FIGS. 31A-31D
Description: ICG is administered several days prior to surgery, which subsequently is cleared from the blood and normal liver but is retained in tumor tissue. At the time of surgery, a near-infrared camera is used to identify ICG retaining tumor tissue since it fluoresces in response to near-infrared wave.^22,23 The use of ICG for localization of HCC and hepatoblastoma has been reported^16-18,21,22,30 however, there are no published reports regarding its use in FLC. […] The MDR3 transporter, which is responsible for export of ICG into the bile canaliculi is also expressed in tumor cells, albeit at lower levels.

time to evidence of excretion of the tracer into the gallbladder via the biliary system ([1]; IV, wild-type mice): ≤ 20 min | time to evidence of the tracer in the lumen of the small intestine ([1]; IV, wild-type mice): ≤ 45 min | signal intensity in the liver ([1]; at 4 hours post injection): decreased significantly | tracer localization ([1]; by 5 minutes post injection): predominantly localized to the liver | percentage of injected dose localized to the cecum ([1]; cecum, at 4 hours, IV, wild-type mice): approximately 30 % ID | percentage of injected dose localized to the liver ([1]; by 10 minutes, IV, wild-type mice, FIG. 18B): ~70% | percentage of injected dose localized to the liver ([1]; by 4 hours, IV, wild-type mice): about 40 % ID | activity present in whole blood ([2]; 1 hour): 2-2.5 % ID | activity present in whole blood ([2]; 4 hours): 1 % ID
Compound: CC1(C)C(/C=C/C=C/C=C/C=C2/N(CCCCCC(=O)NCCNC(=O)c3ccc([18F])cc3)c3ccc4ccccc4c3C2(C)C)=[N+](CCCCS(=O)(=O)[O-])c2ccc3ccccc3c21 [[^18F]ICG]
tracer localization ([1]; at 4 hours post injection): majority of the tracer is localized to the lumen of the intestines | uptake by other organs via the circulation ([1]; organs other than liver): no significant uptake by any other organs | tracer localization ([1]; time 0 post injection): localized to the heart and the major vessels

RCP (stability) ([3]; at 1 hour): 95% | RCP (stability) ([3]; at 2 hours): 96%
Compound: CC1(C)C(/C=C/C=C/C=C/C=C2/N(CCCCCC(=O)NCCNC(=O)c3ccc([18F])cc3)c3ccc4ccccc4c3C2(C)C)=[N+](CCCCS(=O)(=O)[O-])c2ccc3ccccc3c21 [[^18F]SFB-ICG]

Compound: CC1(C)C(/C=C/C=C/C=C/C=C2\N(CCCCS(=O)(=O)O)c3ccc4ccccc4c3C2(C)C)=[N+](CCCCS(=O)(=O)[O-])c2ccc3ccccc3c21 [ICG, indocyanine green]
uptake by implanted Huh7 tumor cells (Huh7 tumor cells): demonstrate uptake; also recorded: ICG uptake by Huh7 tumor cells | ICG uptake/accumulation in FLC tumor tissue and metastases (FLC tumor tissue): accumulation of ICG in metastatic tumor bed; also recorded: fluorescence (white) within tumor cells; also recorded: accumulates in FLC; also recorded: ICG uptake by tumor tissue in the liver as well as metastatic deposits

PET signal in large intestines and cecum ([1]; time activity curves, FIGS. 18A-18B): not observed until the 4 hour time point
Compound: CC1(C)C(/C=C/C=C/C=C/C=C2/N(CCCCCC(=O)NCCNC(=O)c3ccc([18F])cc3)c3ccc4ccccc4c3C2(C)C)=[N+](CCCCS(=O)(=O)[O-])c2ccc3ccccc3c21 [^18F-SFB-ICG]
tracer localization ([1]; at 4 hours post injection): most intense signal is present within the lumen of the intestines | tracer localization ([1]; by 5 minutes post injection): majority of the tracer is localized to the liver
